Reference: patent US10155727B2, “Pyrazoles” (Janssen Pharmaceuticals, Inc., priority 2014, dated 2018)
Where two headings read alike, the source gives them in different places.

Assays:
rat NR1/NR2B receptor = rat NR1/NR2B receptor (Rattus norvegicus (Rat), UniProt P35439+Q00960); assay: NR2B binding assay: inhibition of specific [3H]-Ifenprodil binding to the rat NR1/NR2B receptor; conditions: for inhibition at 1 µM: read-out: % INH @ 1 μM; for inhibition at 10 µM: 10 μM test compound, read-out: % INH @ 10 μM
Experimental: Biological Assays Inhibition of Specific Binding to the Rat NR1/NR2B Receptor
Male Wistar rats (180 to 200 g) were killed by suffocation in a CO2 chamber for two minutes. Whole brains without cerebellum were removed and dissected on ice, placed into closed vials and stored at −70° C.
Membrane fractions were prepared and tested using standard techniques. At the time of the assay, 1 g of the brains was placed into 25 ml of 50 mM Tris/10 mM EDTA buffer, pH 7.1, (25 vol. per g of original tissue) and homogenized for 30 sec at 20000 rpm with an Ultraturrax T25 (Jahnke & Kunkel, IKA-Labortechnik, Staufen, Germany).
The supernatant was discarded and the pellet was homogenized on ice for 30 sec at 20000 rpm with an Ultraturrax and again centrifuged at 48000 g for 30 minutes at 4° C. The resultant pellet was resuspended in 25 ml of 50 mM Tris/10 mM EDTA buffer, homogenized for 30 sec with an Ultraturrax, aliquoted, frozen at −70° C. and stored until use.
After thawing on the day of the assay, a 5 ml membrane aliquot was centrifuged at 48000 g for 30 min at 4° C. The pellet was resuspended in 5 ml of 5 mM Tris/1 mM EDTA buffer, pH 7.4, homogenized for 30 sec at 20000 rpm with an Ultraturrax and centrifuged at 48000 g for 30 min at 4° C. This was repeated twice. The final pellet was homogenized in 5 ml of 5 mM Tris/1 mM EDTA buffer at 4° C. with an Ultraturrax and used for the Ifenprodil-binding assay as described in the following.
Nonspecific binding was estimated in the presence of […] CP101.606. The samples were incubated for 60 min. at 4° C.
The incubation was terminated by filtration of the membrane preparations using Filtermat B (Pharmacia, Uppsala Sweden) and a Micro Cell Harvester (Skatron, Lier, Norway). The Filtermat B had been presoaked with 1% polyethylene imine and carefully washed with 50 mM Tris/HCl-buffer pH 7.7 after the filtration to separate free and bound radioactivity.
The optimal amount of membrane preparation in the assay was determined and optimized for each membrane preparation separately before the test.
For pipetting of the incubation mixture the robot Biomek2000 (Fa. Beckman) was used.
For determination of IC50 values the Hill-plot, 2-parameter-model was used.

hERG receptor = hERG receptor (Homo sapiens (Human), UniProt Q12809); assay: HERGBD: inhibition of specific [3H]-Dofetilide binding to the hERG receptor
Experimental: Inhibition of Specific Binding to the hERG—Receptor (HERGBD)
A HEK cell line with stable transfected human ERG receptor was used for the assay. The cells were grown adherently and maintained in DULBECCOS' MEM medium with 10% FBS, 1% non-essential amino acids, 1% Penicillin/Streptomycin and 400 μg/ml G418 (Calbiochem).
For binding assays and membrane preparations the cell culture medium was removed, cells were washed with PBS. Crude membranes for radioligand binding experiments were prepared by scraping the cells off the dishes in ice cold 20 mM HEPES/0.1 mM KCl/pH 7.2. The cell suspension was homogenized on ice (Ultra turrax, 3×20 sec.) and the homogenate was spun for 10 min (1° C., 1000 g, OPTIMA, SW28, 2800 U/min). The supernatant was than centrifuged for 40 min at 100000 g (1° C., OPTIMA, SW28, 23000 U/min). The membrane pellet was re-suspended in 20 mM HEPES/0.1 mM KCl pH 7.2, frozen and stored at −80° C.
After thawing on the day of the assay, the membrane suspension was diluted further with 20 mM HEPES/0.1 mM KCl/pH 7.2.
The incubation mixture of 200 μl contained 1.5 nmol/l 3H-Dofetilide, optimized amount of membrane preparation, 20 mM HEPES/0.1 mM KCl/(pH 7.2) and inhibitor in 1% DMSO. Nonspecific binding was estimated in the presence of […] Dofetilide. The samples were incubated for 90 min. at RT.
Binding was terminated by filtration of the incubated membrane preparations using Filtermat B (Pharmacia, Uppsala Sweden) and a Micro Cell Harvester (Skatron, Lier, Norway). The Filtermat B had been presoaked with 1% polyethylen imine and carefully washed with 0.05 M Tris/HCl-buffer pH=7.7 after the filtration to separate free and bound radioactivity. The filters were counted in a scintillation counter (Betaplate 1205, Berthold, Wildbad, Germany) in order to determine the specific binding of [^3H]-Dofetilide.
The optimal amount of membrane preparation in the assay was determined and optimized for each membrane preparation separately in front of using the membranes in compound testing.
For pipetting of the incubation mixture we routinely use the robot Biomek2000 (Fa. Beckman).

[1] = [3H]-Ifenprodil binding, rat brain membranes
[2] = 1 μM test compound, [3H]-Ifenprodil binding, rat brain membranes
[3] = [3H]-Dofetilide binding, membranes of HEK cells with human ERG receptor, read-out: IC50

Chain of rat NR1/NR2B receptor (Q00960 27-1482, other chains not shown): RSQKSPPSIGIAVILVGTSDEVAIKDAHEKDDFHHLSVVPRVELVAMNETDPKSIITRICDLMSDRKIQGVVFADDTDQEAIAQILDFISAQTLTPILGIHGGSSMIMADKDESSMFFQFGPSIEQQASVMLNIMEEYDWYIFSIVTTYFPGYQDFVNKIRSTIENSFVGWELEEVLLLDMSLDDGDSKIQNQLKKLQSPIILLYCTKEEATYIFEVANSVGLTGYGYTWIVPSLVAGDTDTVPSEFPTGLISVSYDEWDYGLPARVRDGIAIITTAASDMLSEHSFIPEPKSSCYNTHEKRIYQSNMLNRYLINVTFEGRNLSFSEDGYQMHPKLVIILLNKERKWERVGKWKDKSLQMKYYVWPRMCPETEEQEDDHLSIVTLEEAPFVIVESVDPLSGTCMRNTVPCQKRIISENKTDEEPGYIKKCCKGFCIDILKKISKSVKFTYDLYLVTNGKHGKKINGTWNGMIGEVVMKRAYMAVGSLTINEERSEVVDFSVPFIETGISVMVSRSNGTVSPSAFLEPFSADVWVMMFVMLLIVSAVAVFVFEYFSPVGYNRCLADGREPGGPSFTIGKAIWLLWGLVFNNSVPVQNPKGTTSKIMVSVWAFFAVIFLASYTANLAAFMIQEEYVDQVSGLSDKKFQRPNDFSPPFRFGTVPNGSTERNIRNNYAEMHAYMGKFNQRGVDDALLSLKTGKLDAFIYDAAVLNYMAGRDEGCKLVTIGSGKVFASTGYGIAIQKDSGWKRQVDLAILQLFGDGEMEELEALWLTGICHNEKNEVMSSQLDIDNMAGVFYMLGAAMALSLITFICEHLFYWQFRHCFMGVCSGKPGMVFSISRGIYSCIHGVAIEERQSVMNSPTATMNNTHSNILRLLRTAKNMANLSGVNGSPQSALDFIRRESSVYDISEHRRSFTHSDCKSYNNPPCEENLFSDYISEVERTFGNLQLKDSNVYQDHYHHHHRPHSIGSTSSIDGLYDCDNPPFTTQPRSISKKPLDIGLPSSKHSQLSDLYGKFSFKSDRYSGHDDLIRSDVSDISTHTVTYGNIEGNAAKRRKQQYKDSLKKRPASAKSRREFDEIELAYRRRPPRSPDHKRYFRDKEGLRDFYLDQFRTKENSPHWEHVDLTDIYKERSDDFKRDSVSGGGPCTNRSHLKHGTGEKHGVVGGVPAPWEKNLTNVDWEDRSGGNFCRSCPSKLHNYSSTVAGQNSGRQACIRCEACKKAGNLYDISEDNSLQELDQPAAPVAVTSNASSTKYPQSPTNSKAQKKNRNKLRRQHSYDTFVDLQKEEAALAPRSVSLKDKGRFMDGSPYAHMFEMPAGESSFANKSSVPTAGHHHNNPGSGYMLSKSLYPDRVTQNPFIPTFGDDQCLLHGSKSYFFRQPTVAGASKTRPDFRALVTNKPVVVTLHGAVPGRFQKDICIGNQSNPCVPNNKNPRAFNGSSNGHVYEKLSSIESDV
Chain of hERG receptor (Q12809 whole entry): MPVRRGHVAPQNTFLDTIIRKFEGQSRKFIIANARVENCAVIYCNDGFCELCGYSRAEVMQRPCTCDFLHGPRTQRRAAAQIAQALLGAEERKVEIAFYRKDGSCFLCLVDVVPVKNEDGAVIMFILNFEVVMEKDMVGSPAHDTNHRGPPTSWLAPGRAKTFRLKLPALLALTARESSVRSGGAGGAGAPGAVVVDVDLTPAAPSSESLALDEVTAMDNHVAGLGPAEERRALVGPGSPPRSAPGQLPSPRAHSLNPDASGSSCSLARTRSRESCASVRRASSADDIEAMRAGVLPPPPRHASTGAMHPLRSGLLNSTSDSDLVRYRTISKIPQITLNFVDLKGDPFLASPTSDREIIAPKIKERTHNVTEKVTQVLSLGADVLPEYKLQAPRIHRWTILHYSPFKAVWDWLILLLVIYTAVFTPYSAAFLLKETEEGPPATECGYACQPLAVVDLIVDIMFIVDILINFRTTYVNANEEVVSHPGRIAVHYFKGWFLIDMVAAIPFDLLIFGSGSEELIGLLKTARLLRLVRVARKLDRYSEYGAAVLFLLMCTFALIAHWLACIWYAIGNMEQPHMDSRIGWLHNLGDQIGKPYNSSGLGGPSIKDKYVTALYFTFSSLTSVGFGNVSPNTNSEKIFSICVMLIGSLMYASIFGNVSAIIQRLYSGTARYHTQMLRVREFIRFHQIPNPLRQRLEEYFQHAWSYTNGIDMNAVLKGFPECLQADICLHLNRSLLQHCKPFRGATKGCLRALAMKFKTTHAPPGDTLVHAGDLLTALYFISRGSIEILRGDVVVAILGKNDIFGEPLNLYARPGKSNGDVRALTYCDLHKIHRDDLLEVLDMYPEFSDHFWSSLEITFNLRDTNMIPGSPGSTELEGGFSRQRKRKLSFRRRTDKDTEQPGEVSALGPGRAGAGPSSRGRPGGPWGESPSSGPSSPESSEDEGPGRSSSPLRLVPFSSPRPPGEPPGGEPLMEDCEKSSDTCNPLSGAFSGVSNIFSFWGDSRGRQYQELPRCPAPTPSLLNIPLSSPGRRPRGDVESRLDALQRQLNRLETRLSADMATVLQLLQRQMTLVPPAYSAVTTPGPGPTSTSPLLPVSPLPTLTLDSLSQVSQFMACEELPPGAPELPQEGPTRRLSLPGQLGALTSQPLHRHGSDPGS

| SMILES | IC50 (rat NR1/NR2B receptor; [1]) [µM] | IC50 (hERG receptor) [µM] | other results |
| --- | --- | --- | --- |
| Cc1cc(Cn2cc(-c3ccc(Cl)c(Cl)c3)cn2)n(C)n1 [Example 64, 5-[[4-(3,4-dichlorophenyl)pyrazol-1-yl]methyl]-1,3-dimethyl-pyrazole] | 1.1 | 14.4 |  |
| Cn1ccc(Cn2cc(-c3cccc(Br)c3)cn2)n1 [Example 82, 3-[[4-(3-bromophenyl)pyrazol-1-yl]methyl]-1-methyl-pyrazole Succinate] | 2.62 |  |  |
| Cc1cc(Cn2cc(-c3ccc(F)c(C(F)F)c3)cn2)n(C)n1 [Example 32, 5-[[4-[3-(Difluoromethyl)-4-fluoro-phenyl]pyrazol-1-yl]methyl]-1,3-dimethyl-pyrazole] | 0.323 | 38.6 |  |
| Cc1n[nH]c(C)c1CCn1cc(-c2ccc(Cl)cc2)cn1 [Example 73, 4-[2-[4-(4-chlorophenyl)pyrazol-1-yl]ethyl]-3,5-dimethyl-1H-pyrazole] | 1.16 | 98 |  |
| Cc1cc(Cn2cc(-c3ccccn3)cn2)n(C)n1 [Example 105, 2-(1-((1,3-dimethyl-1H-pyrazol-5-yl)methyl)-1H-pyrazol-4-yl)pyridine Succinate] |  |  | inhibition at 1 µM (rat NR1/NR2B receptor; [2]): -1.3%; inhibition at 10 µM (rat NR1/NR2B receptor; [1]): 4.4% |
| Cn1ccc(Cn2cc(-c3ccc(Cl)c(C(F)F)c3)cn2)n1 [Example 24, 3-[[4-[4-chloro-3-(difluoromethyl)phenyl]pyrazol-1-yl]methyl]-1-methyl-pyrazole] | 0.41 |  | IC50 (hERG receptor; [3]): 4.89 µM |
| Cc1n[nH]c(C)c1CCn1cc(-c2ccc(F)c(C(F)F)c2)cn1 [Example 36, 4-[2-[4-[3-(Difluoromethyl)-4-fluoro-phenyl]pyrazol-1-yl]ethyl]-3,5-dimethyl-1H-pyrazole] | 0.424 | 29.6 |  |
| Cn1ccc(Cn2cc(-c3ccc(Cl)c(Cl)c3)cn2)n1 [Example 63, 3-[[4-(3,4-dichlorophenyl)pyrazol-1-yl]methyl]-1-methyl-pyrazole] | 0.612 |  | IC50 (hERG receptor; [3]): 10.8 µM |
| Fc1ccc(-c2cnn(Cc3cc(Cn4ccc(-c5ccc(F)c(C(F)F)c5)n4)n[nH]3)c2)cc1C(F)F [Example 103, 3-(3-(difluoromethyl)-4-fluorophenyl)-1-((5-((4-(3-(difluoromethyl)-4-fluorophenyl)-1H-pyrazol-1-yl)methyl)-1H-pyrazol-3-yl)methyl)-1H-pyrazole] |  | > 10 | inhibition at 1 µM (rat NR1/NR2B receptor; [2]): 15.5% |
| Cc1cc(Cn2cc(-c3cc(F)cc(F)c3)cn2)n(C)n1 [Example 83, 5-[[4-(3,5-difluorophenyl)pyrazol-1-yl]methyl]-1,3-dimethyl-pyrazole] | 6.02 |  |  |
| Cn1cc(Cn2cc(-c3ccc(F)c(OC(F)F)c3)cn2)cn1 [Example 19, 4-[3-(difluoromethoxy)-4-fluoro-phenyl]-1-[(1-methylpyrazol-4-yl)methyl]pyrazole] | 0.202 | > 100 |  |
| Cn1ccc(Cn2cc(-c3ccccc3)cn2)n1 [Example 85, 1-methyl-3-[(4-phenylpyrazol-1-yl)methyl]pyrazole] |  |  | inhibition at 1 µM (rat NR1/NR2B receptor; [2]): 22.5%; inhibition at 10 µM (rat NR1/NR2B receptor; [1]): 25.3% |
| Cn1nccc1Cn1cc(-c2ccc(Cl)c(OC(F)F)c2)cn1 [Example 5, 4-[4-Chloro-3-(difluoromethoxy)phenyl]-1-[(2-methylpyrazol-3-yl)methyl]pyrazole] | 0.148 | 64.3 |  |
| Cc1ccc(-c2cnn(Cc3ccn(C)n3)c2)cc1F [Example 53, 3-[[4-(3-fluoro-4-methyl-phenyl)pyrazol-1-yl]methyl]-1-methyl-pyrazole Succinate] | 3.84 |  |  |
| Cc1cc(Cn2cc(-c3ccc(Cl)c(F)c3)cn2)n(C)n1 [Example 60, 5-[[4-(4-chloro-3-fluoro-phenyl)pyrazol-1-yl]methyl]-1,3-dimethyl-pyrazole] | 2.17 |  | IC50 (hERG receptor; [3]): 31.6 µM |
| Fc1ccc(-c2cnn(CCc3cn[nH]c3)c2)cc1C(F)F [Example 37, 4-[3-(Difluoromethyl)-4-fluoro-phenyl]-1-[2-(1H-pyrazol-4-yl)ethyl]pyrazole] | 2.06 | 38.1 |  |
| COc1cc(F)ccc1-c1cnn(Cc2cc(C)nn2C)c1 [Example 68, 5-[[4-(4-fluoro-2-methoxy-phenyl)pyrazol-1-yl]methyl]-1,3-dimethyl-pyrazole Succinate] |  |  | inhibition at 10 µM (rat NR1/NR2B receptor; [1]): 26.3%; inhibition at 1 µM (rat NR1/NR2B receptor): 8.7%; IC50 (hERG receptor; [3]): 93.6 µM |
| Cn1nccc1Cn1cc(-c2ccc(Cl)cc2)cn1 [Example 76, 4-(4-Chlorophenyl)-1-[(2-methylpyrazol-3-yl)methyl]pyrazole] | 7.35 | 120 |  |
| Cc1cc(Cn2cc(-c3ccccc3)cn2)n(C)n1 [Example 86, 1,3-Dimethyl-5-[(4-phenylpyrazol-1-yl)methyl]pyrazole] |  |  | inhibition at 1 µM (rat NR1/NR2B receptor; [2]): 3.8%; inhibition at 10 µM (rat NR1/NR2B receptor; [1]): 10.9% |
| Cn1nccc1Cn1cc(-c2ccccc2)cn1 [Example 87, 1-Methyl-5-[(4-phenylpyrazol-1-yl)methyl]pyrazole; succinic acid] |  |  | inhibition at 1 µM (rat NR1/NR2B receptor; [2]): -3.3%; inhibition at 10 µM (rat NR1/NR2B receptor; [1]): 28.8%; IC50 (hERG receptor; [3]): > 100 µM |
| CCn1ccc(Cn2cc(-c3ccc(F)c(C(F)F)c3)cn2)n1 [Example 38, 3-[[4-[3-(Difluoromethyl)-4-fluoro-phenyl]pyrazol-1-yl]methyl]-1-ethyl-pyrazole] | 0.443 | > 100 |  |
| FS(F)(F)(F)(F)c1cccc(-c2cnn(Cc3cc[nH]n3)c2)c1 [Example 72, 1-((1H-pyrazol-3-yl)methyl)-4-(3-(pentafluoro-16-sulfanyl)phenyl)-1H-pyrazole Succinate] | 0.0951 | 44.7 |  |
| Cc1n[nH]c(C)c1Cn1cc(-c2ccc(F)c(C(C)(F)F)c2)cn1 [Example 90] | 0.422 | 84 |  |
| Cc1cc(Cn2cc(-c3ccc(Cl)c(C(F)(F)F)c3)cn2)n(C)n1 [Example 29, 5-[[4-[4-chloro-3-(trifluoromethyl)phenyl]pyrazol-1-yl]methyl]-1,3-dimethyl-pyrazole Succinate] | 2.54 | 17.9 |  |
| Cn1ccc(Cn2cc(-c3ccc(Cl)c(C(F)(F)F)c3)cn2)n1 [Example 30, 3-[[4-[4-chloro-3-(trifluoromethyl)phenyl]pyrazol-1-yl]methyl]-1-methyl-pyrazole] | 1.01 | 3.47 |  |
| CCn1cc(CCn2cc(-c3ccc(Cl)c(OC(F)F)c3)cn2)cn1 [Example 10, 4-[4-Chloro-3-(difluoromethoxy)phenyl]-1-[2-(1-ethylpyrazol-4-yl)ethyl]pyrazole] | 0.25 | 18.4 |  |
| Cn1ccc(Cn2cc(-c3ccc(Br)cc3)cn2)n1 [Example 79, 3-[[4-(4-bromophenyl)pyrazol-1-yl]methyl]-1-methyl-pyrazole] | 4.72 |  |  |
| Cc1cc(Cn2cc(-c3ccc(F)c(C)c3)cn2)n(C)n1 [Example 54, 5-[[4-(4-fluoro-3-methyl-phenyl)pyrazol-1-yl]methyl]-1,3-dimethyl-pyrazole Succinate] |  |  | IC50 (hERG receptor; [3]): > 100 µM |
| Cn1ccc(Cn2cc(-c3cc(F)cc(F)c3)cn2)n1 [Example 84, 3-[[4-(3,5-difluorophenyl)pyrazol-1-yl]methyl]-1-methyl-pyrazole] |  |  | inhibition at 1 µM (rat NR1/NR2B receptor; [2]): 14.6%; inhibition at 10 µM (rat NR1/NR2B receptor; [1]): 45.7% |
